The results in this text go back to patent publication US12715946B2, “Composition” (JOSHO GAKUEN EDUCATIONAL FOUNDATION, priority 2020, dated 2026).

SMILES strings stand for the structures.

This experiment relates to Chinese hamster ovary cells (CHO cells). Kind of experiment: Evaluation of cellular uptake of FITC-labeled model drugs (flow cytometry, MFI). It counts as cell-based. The conditions noted are these: 5 μg/mL, 2 hours incubation, n=3. The procedure:
Cellular uptake evaluation of the model drugs described above was conducted using Examples 1 to 3 (polymeric compounds of Manufacturing Examples 1 to 3) or Comparative Examples 1 to 2 (compounds of Manufacturing Examples 4 and 5). A suspension of Ham's F-12 medium (manufactured by Fujifilm Wako Chemical Corporation) containing Chinese hamster ovary cells (CHO cells, 2×10^5 cells/mL) was prepared and seeded at 500μL/well to each well of a 24-well plate. The cells were incubated in a CO2 gas incubator (37° C., 5% CO2) for 24 hours.
Then, the compositions of the Examples and Comparative Examples (Table 1-6) were prepared by mixing 250 μL/well of Ham's F-12 medium containing the above model drugs and 250 μL/well of Ham's F-12 medium containing the manufacturing examples.
Then, the supernatant was removed from each well of the pre-cultured 24-well plate using an aspirator and the cells were washed twice with 500 μL/well of phosphate-buffered saline. Then, the aforementioned compositions were gently added to the wells and incubated in a carbon dioxide incubator for 2 hours. The number of experiments was n=3.
After 2 hours, the supernatants of medium were removed, and the cells were washed twice with 500 μL/well of phosphate-buffered saline. Then, 100 μL/well of trypsin-EDTA solution (0.25% trypsin, 1 mmol/L EDTA solution, Life Technologies) was added, and cultured CHO cells were detached from 24-well plates.
Then, 400 μL/well of trypan blue solution (Fujifilm Wako Chemical Corporation) was added to suspend the cells, and the cells were collected in microtubes. The collected cell suspensions were passed through a cell strainer, and the mean fluorescence intensity (MFI) was measured by flow cytometry. The cells without the polymeric compound (only the model drug was added) were used as controls.
While only the model drug introduced into the cells emits fluorescence. MFI represents the arithmetic average of the fluorescence intensity per cell, and a larger value of MFI indicates a more efficient intracellular uptake of the model drug.

As to `O=C([O-])CCCCCCCNC(=O)c1ccccc1O.[Na+]` [Comparative Example 2, Sodium salcaprozate], the “MFI ± S.D.” value (Model drug: FITC-CTB (Molecular weight 11,000)) is listed as 3.7 ± 0.1; the “MFI ± S.D.” value (Model drug: FITC-INS (Molecular weight 5,800)) is given as 19.7 ± 0.2; the “MFI ± S.D.” value (Model drug: FITC-IgG (Molecular weight 150,000)) worked out at 3.2 ± 0.1; the “MFI ± S.D.” value (Model drug: FITC-IgM (Molecular weight 900,000)) was 3.1 ± 0.2; the “MFI ± S.D.” value (Model drug: FITC-OVA (Molecular weight 45,000)) was 3.6 ± 0.4; the “MFI ± S.D.” value (Model drug: FITC-Tf (Molecular weight 77,000)) was found to be 6.7 ± 0.2.
